Common to all, as to format: cell-based, Saccharomyces cerevisiae W303
Experiment [1] relates to promoter of yeast gene YOR382w. The text has this: (§1) The inventors of the present application understood that the induction of certain yeast genes by toxic substances is caused by the activation of the promoters of the genes by the toxic substances. Thus, the inventors prepared a vector that comprised a polynucleotide sequence comprising the promoter of the yeast gene, which sequence is operably linked to a polynucleotide encoding a marker protein; and transformed yeast cells with the vector. […] The working examples hereinafter illustrate the preparation of such vectors, transformation of yeast cells by use of said vectors, and the detection of toxic substances by use of the transformed cells.
(§2) Promoter assay is a method for determining variations of the level of intracellular genes without destroying cells on the basis of the level of expressed marker genes instead of the expressed mRNA. The gene selected to detect a chemical substance is expressed in the absence of chemical substances, and thus a marker protein also occurs in the absence of chemical substances. In the method according to the present invention, the behavior of yeast genes on the addition of test materials is determined on the basis of the level of expressed marker protein so that the presence or the absence, and the kind of toxic chemical substances are predicted. Thus, it is desired that the production of marker proteins is lower in the absence of chemical substances, and the production of marker proteins is higher in the presence of chemical substances.
(§3) Type YEp shuttle vector pYES2 (pYES2, Cat no: V825-20, Invirtogen Corporation, USA), which can be replicated both in E. coli. and yeast was used as vector (R. W. Old, S. B. Primrose Principles of Gene Manipulation 5th Ed., BAIFUKAN CO., LTD, pp138-165, pp.234-263, 2000). The portion of vector pQBI 63 (Cat no.54-0082, Wako Pure Chemical Industries, Ltd.) corresponding to a marker protein GFP was used as the polynucleotide encoding GFP (SEQ ID No: 6). First, the GFP polynucleotide was inserted into the multiple cloning sites of pYES2 to give a vector. Thereafter, the GAL1 promoter of pYES2 was replaced with the polynucleotide comprising the promoter sequence of the intended yeast gene YOR382w (SEQ ID No: 3) to give an intended plasmid vector. Suitable restriction enzymes were selected, and the insertion of the polynucleotide comprising GFP and the promoter sequence was conducted.
(§4) Next, the yeast Saccharomyces cerevisiae W303 was transformed with the resultant plasmid vector according to the following procedures: • 1) Incubating the yeast Saccharomyces cerevisiae W303 in 200 ml of SD medium under shaking until OD 660 reaches 0.5; • 2) Suspending the collected cells in 5 ml of TE-buffer; • 3) Adding 250 μL of 2.5M lithium acetate; • 4) Dispending each 300 μl, adding 10 μl of above plasmid vector thereto, then incubating the suspensions at 30° C. for 30 minutes; • 5) Adding 700 μl of 50% PEG4000, and incubating the mixture under shaking at 30° C. for 60 minutes; • 6) Giving heat shock (42° C., 5 minutes), and then immediately cooling the mixture; • 7) Washing the mixture twice with 1M sorbitol; and • 8) Seeding it on agar plates made of minimum essential medium.
The cells of SC-YOR382W-pQBI as prepared in Example 4 were contacted to one of the following compounds. The yeast cells SC-YOR382W-pQBI were incubated at 25° C. in SD medium (Yeast nitrogen base without amino acids (Difco 0919-15)+glucose+amino acids (adenine, histidine, tryptophan)). One of toxic chemical substances as shown below was added to the cells at logarithmic growth phase, and then the cells were further incubated for two hours.

Experiment [2] has as its system promoter of yeast gene YLR303w. The note with it: SC-YCR303W-pQBI cells (so in the source); summary of Table 14.
Text: as §1, §2
as §3, with “YLR303w” for “YOR382w”, “5)” for “3)”
as §4
The cells of SC-YCR303W-pQBI as prepared in Example 6 were contacted to one of the following compounds. The yeast cells SC-YCR303W-pQBI were incubated at 25° C. in SD medium (Yeast nitrogen base without amino acids (Difco 0919-15)+glucose+amino acids (adenine, histidine, tryptophan)). One of toxic chemical substances as shown below was added to the cells at logarithmic growth phase, and then the cells were further incubated for two hours.

Experiment [3] deals with promoter of yeast gene YLL057c. The note with it: SC-YLL057C-pQBI cells; summary of Table 13.
Text: as §1, §2
as §3, with “PQBI” for “pQBI”, “GALL” for “GAL1”, “YLL057c” for “YOR382w”, “4)” for “3)”
as §4
The cells of SC-YLL057C-pQBI as prepared in Example 5 were contacted to one of the following compounds. The yeast cells SC-YLL057C-pQBI were incubated at 25° C. in SD medium (Yeast nitrogen base without amino acids (Difco 0919-15)+glucose+amino acids (adenine, histidine, tryptophan)). One of toxic chemical substances as shown below was added to the cells at logarithmic growth phase, and then the cells were further incubated for two hours.

Setting [4] is: SC-YOR382W-pQBI cells, summary of Table 12.

Each structure is given as a SMILES string. Where two headings read alike, the source gives them in different places.

With `Oc1ccccc1` [phenol], the “expression of GFP” value in experiment [1] is “induced the expression of GFP”.

Regarding `CCCCCCCCCc1ccc(O)cc1` [p-nonylphenol], in experiment [1] (setting [4]), the “expression of GFP” value was “induced the expression of GFP”.

Take `c1ccc2c(c1)cc1ccc3cccc4ccc2c1c34` [benzo(a)pyrene]: in experiment [2], the “expression of GFP” value is on record as “induced the expression of GFP”.

With `O=C(O)COc1ccc(Cl)cc1Cl` [2,4-dichlorophenoxyacetic acid], the “expression of GFP” value in experiment [2], in experiment [3] and in experiment [1] (setting [4]) was “induced the expression of GFP” in each case.

The values are drawn from patent publication US20050112573A1, “Method of detecting toxic substance” (priority 2001, published 2005).
